Test results reported in the NIST ThermoML archive (doi:10.1016/j.jct.2018.09.002).
± gives the expanded uncertainty stated by the source.

Columns and labels:
[1] = Liquid; for vapor or sublimation pressure: Ebulliometric method (Recirculating still); for Normal boiling temperature: Distillation
[2] = refractive index (Na D-line) (dimensionless); conditions: 101.33 kPa, Liquid, Standard Abbe refractometry

| vapor or sublimation pressure ([1]; 422.25 K) | vapor or sublimation pressure ([1]; 421.95 K) | Normal boiling temperature [1] | refractive index ([2]; 303.15 K) | refractive index ([2]; 308.15 K) | vapor or sublimation pressure ([1]; 489.08 K) | refractive index ([2]; 298.15 K) | Compound |
| --- | --- | --- | --- | --- | --- | --- | --- |
| 20 ± 1.5 kPa | – | – | – | – | – | – | Cc1cccc(O)c1 [3-methylphenol] |
| – | 20 ± 1.5 kPa | 201.70 ± 2.2 °C | 1.5295 ± 0.0005 | 1.5288 ± 0.0005 | – | – | Cc1ccc(O)cc1 [4-methylphenol] |
| – | – | 269.31 ± 2.2 °C | 1.4751 ± 0.0005 | – | 20 ± 1.5 kPa | 1.4762 ± 0.0005 | OCCNCCO [diethanolamine] |
